Test results published in article PMC11395232, “Aquaporin-3a Dysfunction Impairs Osmoadaptation in Post-Activated Marine Fish Spermatozoa” (International Journal of Molecular Sciences, 2024).

Experiments:
Aqp3a (SaAqp3a) = target: T1, Aqp3a (SaAqp3a) (Sparus aurata, UniProt A0A671Y259); assay: oocyte swelling assay, osmotic water permeability (Pf); format: cell-based
T1 construct: cDNA heterologously expressed in Xenopus laevis oocytes (10 ng cRNA); calculated monomer mass 33 kDa
T1 sequence (A0A671Y259 1-302): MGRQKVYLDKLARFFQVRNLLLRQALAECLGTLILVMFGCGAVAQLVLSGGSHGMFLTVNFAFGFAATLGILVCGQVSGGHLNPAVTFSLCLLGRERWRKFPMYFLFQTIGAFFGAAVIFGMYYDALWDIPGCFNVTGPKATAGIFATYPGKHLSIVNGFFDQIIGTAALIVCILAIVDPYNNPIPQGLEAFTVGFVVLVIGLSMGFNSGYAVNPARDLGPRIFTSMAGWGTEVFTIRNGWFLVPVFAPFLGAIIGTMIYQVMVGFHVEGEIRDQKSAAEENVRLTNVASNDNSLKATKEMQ

human AQP3 (HsAQP3) = target: T2, human AQP3 (HsAQP3) (Homo sapiens, UniProt Q92482); assay: as above; format: cell-based
T2 construct: cDNA heterologously expressed in Xenopus laevis oocytes (10 ng cRNA)
T2 sequence (Q92482 1-292): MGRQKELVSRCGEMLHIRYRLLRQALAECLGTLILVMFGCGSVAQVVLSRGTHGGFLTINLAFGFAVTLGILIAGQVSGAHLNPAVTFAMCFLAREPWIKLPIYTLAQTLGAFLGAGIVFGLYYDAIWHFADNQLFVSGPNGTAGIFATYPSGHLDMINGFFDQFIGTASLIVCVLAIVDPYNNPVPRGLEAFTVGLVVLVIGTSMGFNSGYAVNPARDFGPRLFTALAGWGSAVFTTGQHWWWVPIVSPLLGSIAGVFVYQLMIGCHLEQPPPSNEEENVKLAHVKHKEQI

## O=C(Nc1csc([N+](=O)[O-])c1)Nc1c(Cl)cccc1Cl [DFP00173]
Aqp3a (SaAqp3a)
  inhibition at 10 µM: 76 ± 4%
Human AQP3 (HsAQP3)
  inhibition at 10 µM: 66 ± 4%
